How the values were obtained:
[1] = molecular target: p38α kinase (Homo sapiens (Human), UniProt Q16539); assay: Inhibition of p38α kinase activity (p38α kinase assay kit, ADP-Glo); format: biochemical; settings: ATP 50 μM; read-out: IC50 of inhibition effect on p38α kinase activity
Procedure: The inhibition of p38α kinase activity in vitro was determined by the following method.
The inhibition effect of the compounds of the present invention on p38a kinase activity was determined by the following experimental method:
(§1) p38α kinase assay kit (V9591, Promega) was used to assay enzyme activity. 2 μl of enzyme solution (the final concentration of enzyme in the reaction system was 0.5 ng/μL) formulated with reaction buffer (40 mM Tris pH 7.5, 20 mM MgCl2, 0.1 mg/ml BSA), 1 μl of a 3-fold gradient dilution of the compounds dissolved in 5% DMSO, and 2 μl of a mixed solution of ATP and p38 substrate peptide (the final concentration of ATP was 50 μM, and the final concentration of substrate was 0.2 μg/μL) were added successively to a 384-well plate (4514, Corning). After reaction at 27° C. for 2.5 hours, 5 μl of ADP-Glo solution in the kit was added to each well, then the plate was placed at 27° C. for 40 minutes. 10 μl of kinase assay reagent was then added to each well, then the plate was placed at 27° C. for 30 minutes. The chemiluminescence signal values were measured with a Victor 3 (PerkinElmer) multi-function microplate reader. The IC50 values of the compounds on enzyme inhibition were calculated using Graphpad prism software based on each concentration of the compound and the corresponding signal value thereof.

[2] = molecular target: recombinant human VEGFR2 enzyme (Homo sapiens (Human), UniProt P35968); assay: Inhibition of VEGFR2 kinase activity (Z'-LYTE Kinase Assay Kit); format: biochemical; settings: ATP 50 μM; read-out: IC50 of inhibition effect on VEGFR2 kinase activity
Procedure: The inhibition effect of VEGFR2 kinase activity in vitro was determined by the following method.
The inhibition effect of the compounds of the present invention on VEGFR2 kinase activity was determined by the following experimental method:
After reaction at 25° C. for 2 hours, 5 μL of detection reagent was added to each well. […] The IC50 values of the compounds for enzyme inhibition were calculated using Graphpad prism software based on each concentration of the compound and the corresponding signal value thereof.

[3] = system: Smad signaling pathway of TGFβRI; assay: Inhibition of Smad signaling pathway of TGFβRI (3TP-lux luciferase reporter in HepG2 cell); format: cell-based; settings: Homo sapiens; HepG2 cell, 3TP-lux plasmid, 18 hours; read-out: IC50 on the inhibition of Smad signaling pathway of TGFβRI
Procedure: The inhibition effect of the compounds of the present invention on Smad signaling pathway of TGFβRI was determined by the following in vitro test.
The inhibition effect of the compounds of the present invention on Smad signaling pathway of TGFβRI was determined by the following experimental method:
The seeding density is 2.5×10^4 cells/well. The cells were incubated overnight at 37° C., 5% CO2. Each well was replaced with fresh EMEM medium containing 10% FBS. […] The cells were further incubated for 24 hours at 37° C., 5% CO2. Each well was replaced with 90 μL of EMEM medium containing 0.5% FBS, then the cells were starved for 6 hours. The compounds were formulated as a 20 mM stock solution, which was diluted in gradient to a 400× concentration with 100% DMSO, and further 40-fold diluted with EMEM containing 0.5% FBS. The cell culture plate was taken out, then 10 μl of diluted compound or control (0.25% DMSO) was added to each well respectively. The plate was shaken gently, then incubated for 18 hours in an incubator at 37° C., 5% CO2. Finally, 100 μl of detection reagent ONE-Glo™ Luciferase Assay (E6110, Promega) was added to each well, and the plate was placed in dark at room temperature for 10 minutes. The chemiluminescence signal values were measured with a Victor 3.0 (PerkinElmer). The IC50 values of the compounds were calculated using Graphpad Prism software based on each concentration of the compound and the corresponding signal value thereof.

[4] = molecular target: TGFβRI kinase ALK5 (Homo sapiens (Human), UniProt P36897); assay: Inhibition of TGFβRI kinase ALK5 activity (TGFβRI kinase assay kit, ADP-Glo); format: biochemical; settings: ATP 50 μM; read-out: IC50 of inhibition effect on TGFβRI kinase ALK5 activity
Procedure: The inhibition effect of TGFβRI kinase activity in vitro was determined by the following method.
The inhibition effect of the compounds of the present invention on TGFβRI kinase ALK5 activity was determined by the following experimental method:
as §1, with “TGFβRI kinase” for “p38α kinase”, “kit (V4093,” for “kit (V9591,”, “was 2” for “was 0.5”, “and TGFβRI” for “and p38”, “compounds for” for “compounds on”

[5] = system: NIH3T3 cell; assay: Inhibition of NIH3T3 cell proliferation (CellTiter-Glo); format: cell-based; settings: Mus musculus, 72 hours, 0.5% FBS
Procedure: The inhibition effect of the compounds of the present invention on NIH3T3 cell proliferation was determined by the following in vitro test.
The inhibition effect of the compounds of the present invention on NIH3T3 cell proliferation was determined by the following experimental method:
On a 96-well white plate with transparent bottom (3903, Corning), 100 μL of NIH3T3 cell (GNM6, Cell Bank of Typical Culture Collection Committee of Chinese Academy of Sciences) was seeded in a DMEM medium containing 10% FBS in each well. The seeding density is 2000 cells/well. The cells were incubated overnight at 37° C., 5% CO2. After overnight incubation, each well was replaced with 90 μL of DMEM medium containing 0.5% FBS. 10 μl of a 3-fold gradient dilution of the compounds with DMEM medium containing 0.5% FBS was then added, and the plate was incubated for 72 hours in a cell incubator at 37° C., 5% CO2. Finally, 50 μL of CellTiter-Glo (G7573, Promega) was added to each well. After incubation for 10 minutes at room temperature, the chemiluminescence signal values were measured with a Victor 3 microplate reader (PerkinElmer). The IC50 values of the compounds were calculated using Graphpad Prism software based on each concentration of the compound and the corresponding signal value thereof.

Sequence of TGFβRI kinase ALK5 (P36897 34-503): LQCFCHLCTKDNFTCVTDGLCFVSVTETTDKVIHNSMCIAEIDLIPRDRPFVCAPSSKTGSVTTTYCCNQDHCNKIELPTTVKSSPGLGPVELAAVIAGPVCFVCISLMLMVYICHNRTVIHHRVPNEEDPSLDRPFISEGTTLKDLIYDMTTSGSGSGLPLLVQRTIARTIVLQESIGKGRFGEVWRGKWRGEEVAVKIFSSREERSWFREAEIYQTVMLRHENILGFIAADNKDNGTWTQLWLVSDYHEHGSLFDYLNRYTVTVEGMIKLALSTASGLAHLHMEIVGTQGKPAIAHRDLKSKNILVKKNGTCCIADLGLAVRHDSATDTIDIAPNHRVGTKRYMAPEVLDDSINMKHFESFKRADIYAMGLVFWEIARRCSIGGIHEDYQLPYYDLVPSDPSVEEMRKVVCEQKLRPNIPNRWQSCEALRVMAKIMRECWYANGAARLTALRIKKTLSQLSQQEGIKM
Sequence of recombinant human VEGFR2 enzyme (P35968 20-1356): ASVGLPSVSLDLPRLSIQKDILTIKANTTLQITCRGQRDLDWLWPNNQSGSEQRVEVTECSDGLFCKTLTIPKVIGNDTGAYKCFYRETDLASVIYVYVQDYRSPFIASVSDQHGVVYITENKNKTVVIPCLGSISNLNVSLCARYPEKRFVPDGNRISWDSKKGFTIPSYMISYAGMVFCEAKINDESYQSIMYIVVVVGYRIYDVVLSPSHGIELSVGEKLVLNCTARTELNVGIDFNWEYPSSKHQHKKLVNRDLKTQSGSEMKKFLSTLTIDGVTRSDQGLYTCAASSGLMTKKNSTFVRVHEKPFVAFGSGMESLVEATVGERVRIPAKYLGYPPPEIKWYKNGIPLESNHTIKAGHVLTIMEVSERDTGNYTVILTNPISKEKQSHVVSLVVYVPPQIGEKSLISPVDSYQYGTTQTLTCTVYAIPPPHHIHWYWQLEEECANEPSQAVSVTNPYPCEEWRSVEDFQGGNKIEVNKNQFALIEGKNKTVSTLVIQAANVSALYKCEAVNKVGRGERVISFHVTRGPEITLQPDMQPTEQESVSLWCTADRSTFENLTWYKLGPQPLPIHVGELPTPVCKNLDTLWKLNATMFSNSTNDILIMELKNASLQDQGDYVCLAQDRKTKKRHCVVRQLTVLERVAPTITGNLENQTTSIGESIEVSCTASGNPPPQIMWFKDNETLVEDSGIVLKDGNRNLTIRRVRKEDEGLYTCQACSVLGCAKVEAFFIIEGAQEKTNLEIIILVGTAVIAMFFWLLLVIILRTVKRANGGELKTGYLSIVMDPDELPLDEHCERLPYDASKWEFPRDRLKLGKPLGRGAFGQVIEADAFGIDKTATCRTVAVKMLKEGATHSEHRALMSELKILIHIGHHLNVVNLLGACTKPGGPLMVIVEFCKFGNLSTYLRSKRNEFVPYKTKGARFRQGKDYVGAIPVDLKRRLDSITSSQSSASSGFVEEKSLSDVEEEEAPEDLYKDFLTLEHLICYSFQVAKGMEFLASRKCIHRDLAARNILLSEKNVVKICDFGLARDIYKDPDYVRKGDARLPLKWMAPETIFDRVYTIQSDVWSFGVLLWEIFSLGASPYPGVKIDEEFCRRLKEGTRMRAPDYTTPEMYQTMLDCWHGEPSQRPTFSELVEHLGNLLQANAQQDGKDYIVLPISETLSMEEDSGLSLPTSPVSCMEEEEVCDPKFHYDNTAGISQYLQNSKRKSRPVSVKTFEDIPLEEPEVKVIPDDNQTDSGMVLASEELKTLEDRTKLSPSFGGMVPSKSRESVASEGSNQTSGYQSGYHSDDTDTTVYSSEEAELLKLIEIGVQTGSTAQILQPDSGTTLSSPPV
Sequence of p38α kinase (Q16539 whole entry): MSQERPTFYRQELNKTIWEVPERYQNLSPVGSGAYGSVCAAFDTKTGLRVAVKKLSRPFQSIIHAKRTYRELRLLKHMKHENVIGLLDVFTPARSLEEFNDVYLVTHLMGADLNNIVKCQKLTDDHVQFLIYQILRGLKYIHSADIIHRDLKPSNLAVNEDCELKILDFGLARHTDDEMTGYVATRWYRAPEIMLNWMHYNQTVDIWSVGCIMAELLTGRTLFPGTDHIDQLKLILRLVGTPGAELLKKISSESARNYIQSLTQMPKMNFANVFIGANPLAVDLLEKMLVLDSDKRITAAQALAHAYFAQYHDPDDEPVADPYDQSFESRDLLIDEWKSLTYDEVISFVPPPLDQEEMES

Structure (SMILES) | IC50 [1] [nM] | IC50 [2] [nM] | IC50 [3] [nM] | IC50 [4] [nM] | IC50 [5] [nM]
Cc1cccc(-c2nn3c(c2-c2ccc4nccc(C(N)=O)c4c2)C2CCC3CC2)n1 [Example 36, 6-(2-(6-Methylpyridin-2-yl)-4,5,6,7-tetrahydro-4,7-ethanopyrazolo[1,5-a]pyridin-3-yl)quinoline-4-carboxamide] | 598 | 1010 | 18 | 21 | –
Cc1cccc(-c2nc3n(c2-c2ccnc(-c4ccc(C(N)=O)cc4)c2)C2CCC3C2)n1 (stereo not shown) [Example 4, 4-(4-(2-(6-Methylpyridin-2-yl)-5,6,7,8-tetrahydro-5,8-methanoimidazo[1,2-a]pyridin-3-yl)pyridin-2-yl)benzamide] | 638 | 4060 | 86 | 29 | –
Cc1cccc(-c2nc3n(c2-c2ccnc(NCCN4CCOCC4)c2)[C@H]2CC[C@@H]3C2)n1 [Example 16-1, 4-((5S,8R)-2-(6-Methylpyridin-2-yl)-5,6,7,8-tetrahydro-5,8-methanoimidazo[1,2-a]pyridin-3-yl)-N-(2-morpholinoethyl)pyridin-2-amine] | – | > 10000 | – | 77 | –
Cc1cccc(-c2nc3n(c2-c2ccnc(-c4ccc(S(C)(=O)=O)cc4)c2)[C@@H]2CC[C@H]3C2)n1 [Example 3-2, (5R,8S)-2-(6-Methylpyridin-2-yl)-3-(2-(4-(methylsulfonyl)phenyl)pyridin-4-yl)-5,6,7,8-tetrahydro-5,8-methanoimidazo[1,2-a]pyridine] | 654 | 928 | 31 | 23 | –
Cn1cc(-c2cc(-c3c(-c4ccc(F)cn4)nc4n3[C@H]3CC[C@@H]4C3)ccn2)cn1 [Example 40-1, (5S,8R)-2-(5-Fluoropyridin-2-yl)-3-(2-(1-methyl-1H-pyrazol-4-yl)pyridin-4-yl)-5,6,7,8-tetrahydro-5,8-methanoimidazo[1,2-a]pyridine] | 1360 | 2080 | 18 | 10 | 42
CS(=O)(=O)c1ccc(-c2cc(-c3c(-c4ccc(F)cn4)nc4n3[C@H]3CC[C@@H]4C3)ccn2)cc1 [Example 42-1, (5S,8R)-2-(5-Fluoropyridin-2-yl)-3-(2-(4-(methylsulfonyl)phenyl)pyridin-4-yl)-5,6,7,8-tetrahydro-5,8-methanoimidazo[1,2-a]pyridine] | 7780 | 9740 | 31 | – | –
